Converted amounts (≈) assume the structure as drawn. Where two headings read alike, the source gives them in different places.
Legend:
E. coli ATCC 25922 = experiment: Broth microdilution MIC, E. coli ATCC 25922; format: cell-based; conditions: Escherichia coli, ATCC25922; E. coli ATCC 25922, broth microdilution; read-out: MIC E. coli 25922
In short: (§1)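 Visual MIC readout after 16-20 h at 37° C in CLSI-format microdilution. Compounds tested as 2-fold series against a 5×10^5 CFU/mL inoculum in cation-supplemented Mueller-Hinton broth.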

E. coli AG100 = experiment: Broth microdilution MIC, E. coli AG100 (wild-type parent); format: cell-based; conditions: Escherichia coli; wild-type parent E. coli AG100, broth microdilution; read-out: MIC E. coli AG100
In short: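 Broth microdilution in cation-supplemented Mueller-Hinton broth, 2-fold serial compound dilutions, inoculum 5×10^5 CFU/mL from 3-5 h log culture.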

N. gonorrhoeae WHO F = experiment: Liquid broth MIC, N. gonorrhoeae WHO F; format: cell-based; conditions: Neisseria gonorrhoeae; N. gonorrhoeae WHO F, liquid broth; read-out: Minimum Inhibitory Concentration, N. gonorrhoeae WHO F
In short: (§2)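 In liquid broth, wild-type reference gonococci at 5×10^5 CFU/mL faced twofold compound dilutions for 40-42 hours (36° C, 5% CO2). The MIC was the lowest concentration with no growth seen by eye.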

[1] = test system: N. gonorrhoeae ATCC 49226; experiment: Liquid broth MIC, N. gonorrhoeae ATCC 49226; format: cell-based; conditions: Neisseria gonorrhoeae, ATCC49226; N. gonorrhoeae ATCC 49226, liquid broth; read-out: Minimum Inhibitory Concentration, N. gonorrhoeae ATCC 49226
In short: as §2

K. pneumoniae 848844 = experiment: microbe, parasite or virus in culture; format: cell-based, Klebsiella pneumoniae
In short: as §1

N. gonorrhoeae FA1090 = experiment: Liquid broth MIC, N. gonorrhoeae FA1090; format: cell-based; conditions: Neisseria gonorrhoeae; N. gonorrhoeae FA1090, liquid broth; read-out: Minimum Inhibitory Concentration, N. gonorrhoeae FA1090
In short: as §2

[2] = Klebsiella pneumoniae, K. pneumoniae 848844 producing SHV-11 and KPC-2, read-out: MIC K. pneumoniae 848844

Row | Compound | MIC (E. coli ATCC 25922) [µg/mL] | MIC (E. coli AG100) [µg/mL] | MIC (N. gonorrhoeae WHO F) [µg/mL] | MIC [1] [µg/mL] | MIC (K. pneumoniae 848844; [2]) [µg/mL] | MIC (N. gonorrhoeae FA1090) [µg/mL] | MIC (K. pneumoniae 848844; Klebsiella pneumoniae, 848844, read-out: MIC K. pneumoniae 848844) [µg/mL]
1 | CCN1CCN(C(=O)NC(C(=O)N[C@H]2Cc3ccc(Cl)c(C(=O)O)c3OB2O)c2ccc(O)c(O)c2Cl)C(=O)C1=O (stereo partly drawn) [Example 217, (3R)-7-chloro-3-(2-(2-chloro-3,4-dihydroxyphenyl)-2-(4-ethyl-2,3-dioxopiperazine-1-carboxamido)acetamido)-2-hydroxy-3,4-dihydro-2H-benzo[e][1,2]oxaborinine-8-carboxylic acid] | 8 to 16 | 2 to 4 | 0.25 to 0.5 (≈ 0.41 to 0.821 µM) | 16 to 32 (≈ 26.3 to 52.5 µM) | 2 to 4 | 1 to 2 (≈ 1.64 to 3.28 µM) | –
2 | CCN1CCN(C(=O)NC(C(=O)N[C@H]2Cc3ccc(Cl)c(C(=O)O)c3OB2O)c2ncc(O)cc2F)C(=O)C1=O (stereo partly drawn) [Example 216, (3R)-7-chloro-3-(2-(4-ethyl-2,3-dioxopiperazine-1-carboxamido)-2-(3-fluoro-5-hydroxypyridin-2-yl)acetamido)-2-hydroxy-3,4-dihydro-2H-benzo[e][1,2]oxaborinine-8-carboxylic acid] | 32 to 64 | 32 to 64 | < 0.125 | 1 to 2 (≈ 1.73 to 3.46 µM) | 32 to 64 | 0.25 to 0.5 (≈ 0.433 to 0.865 µM) | –
3 | NCCN1CCN(C(=O)N[C@@H](C(=O)N[C@H]2Cc3ccc(F)c(C(=O)O)c3OB2O)c2ccc(O)c(O)c2Cl)C(=O)C1=O [Example 227, (R)-3-((R)-2-(4-(2-aminoethyl)-2,3-dioxopiperazine-1-carboxamido)-2-(2-chloro-3,4-dihydroxyphenyl)acetamido)-7-fluoro-2-hydroxy-3,4-dihydro-2H-benzo[e][1,2]oxaborinine-8-carboxylic acid] | 0.5 to 1 | < 0.25 | 1 to 2 (≈ 1.65 to 3.29 µM) | 4 to 8 (≈ 6.58 to 13.2 µM) | 0.5 to 1 | 1 to 2 (≈ 1.65 to 3.29 µM) | –
4 | CCN1CCN(C(=O)NC(C(=O)N[C@H]2Cc3cccc(C(=O)O)c3OB2O)c2ccc(S(N)(=O)=O)c(F)c2)C(=O)C1=O (stereo partly drawn) [Example 210, (3R)-3-(2-(4-ethyl-2,3-dioxopiperazine-1-carboxamido)-2-(3-fluoro-4-sulfamoylphenyl)acetamido)-2-hydroxy-3,4-dihydro-2H-benzo[e][1,2]oxaborinine-8-carboxylic acid] | 8 to 16 | 32 to 64 | < 0.125 | 4 to 8 (≈ 6.61 to 13.2 µM) | > 128 | < 0.125 | –
5 | CCN1CCN(C(=O)NC(C(=O)N[C@H]2Cc3cccc(C(=O)O)c3OB2O)c2nc(N)sc2F)C(=O)C1=O (stereo partly drawn) [Example 205, (3R)-3-(2-(2-amino-5-fluorothiazol-4-yl)-2-(4-ethyl-2,3-dioxopiperazine-1-carboxamido)acetamido)-2-hydroxy-3,4-dihydro-2H-benzo[e][1,2]oxaborinine-8-carboxylic acid] | 2 to 4 | 8 to 16 | < 0.125 | < 0.125 | 32 to 64 | < 0.125 | –
6 | NS(=O)(=O)c1ccc(C(NC(=O)N2CCN(CCF)C(=O)C2=O)C(=O)N[C@H]2Cc3ccc(F)c(C(=O)O)c3OB2O)cc1 (stereo partly drawn) [Example 182, (3R)-7-fluoro-3-(2-(4-(2-fluoroethyl)-2,3-dioxopiperazine-1-carboxamido)-2-(4-sulfamoylphenyl)acetamido)-2-hydroxy-3,4-dihydro-2H-benzo[e][1,2]oxaborinine-8-carboxylic acid] | > 128 | > 128 | 1 to 2 (≈ 1.6 to 3.21 µM) | 4 to 8 (≈ 6.42 to 12.8 µM) | > 128 | 1 to 2 (≈ 1.6 to 3.21 µM) | –
7 | CCN1C[C@H](CCN)N(C(=O)NC(C(=O)N[C@H]2Cc3ccc(F)c(C(=O)O)c3OB2O)c2ccc(O)c(O)c2Cl)C(=O)C1=O (stereo partly drawn) [Example 238, (3R)-3-(2-((S)-6-(2-aminoethyl)-4-ethyl-2,3-dioxopiperazine-1-carboxamido)-2-(2-chloro-3,4-dihydroxyphenyl)acetamido)-7-fluoro-2-hydroxy-3,4-dihydro-2H-benzo[e][1,2]oxaborinine-8-carboxylic acid] | 32 to 64 | 2 to 4 | 4 to 8 (≈ 6.29 to 12.6 µM) | > 64 | – | 4 to 8 (≈ 6.29 to 12.6 µM) | 8 to 16
8 | CCN1CCN(C(=O)N[C@@H](C(=O)N[C@H]2Cc3ccc(F)c(C(=O)O)c3OB2O)c2ccc(O)c(F)c2)C(=O)C1=O [Example 161, (R)-3-((R)-2-(4-ethyl-2,3-dioxopiperazine-1-carboxamido)-2-(3-fluoro-4-hydroxyphenyl)acetamido)-7-fluoro-2-hydroxy-3,4-dihydro-2H-benzo[e][1,2]oxaborinine-8-carboxylic acid] | > 128 | > 128 | < 0.125 | 1 to 2 (≈ 1.78 to 3.57 µM) | > 128 | < 0.125 | –
9 | CCN1CCN(C(=O)NC(C(=O)N[C@H]2Cc3cccc(C(=O)O)c3OB2O)c2ccc(O)c(O)c2F)C(=O)C1=O (stereo partly drawn) [Example 70] | 2 to 4 | 2 to 4 | < 0.125 | 0.25 to 0.5 (≈ 0.448 to 0.896 µM) | 8 to 16 | < 0.125 | –
10 | CCN1CCN(C(=O)N[C@@H](C(=O)N[C@H]2Cc3cccc(C(=O)O)c3OB2O)c2ccc(O)c(O)c2Cl)C(=O)C1=O [Example 190, (R)-3-((R)-2-(2-chloro-3,4-dihydroxyphenyl)-2-(4-ethyl-2,3-dioxopiperazine-1-carboxamido)acetamido)-2-hydroxy-3,4-dihydro-2H-benzo[e][1,2]oxaborinine-8-carboxylic acid] | 2 to 4 | 0.5 to 1 | 0.25 to 0.5 (≈ 0.435 to 0.87 µM) | 1 to 2 (≈ 1.74 to 3.48 µM) | 0.5 to 1 | 0.25 to 0.5 (≈ 0.435 to 0.87 µM) | –
11 | O=C(O)c1c(F)ccc2c1OB(O)[C@@H](NC(=O)C(NC(=O)N1CCN(CCF)C(=O)C1=O)c1ncc(O)cc1F)C2 (stereo partly drawn) [Example 183, (3R)-7-fluoro-3-(2-(3-fluoro-5-hydroxypyridin-2-yl)-2-(4-(2-fluoroethyl)-2,3-dioxopiperazine-1-carboxamido)acetamido)-2-hydroxy-3,4-dihydro-2H-benzo[e][1,2]oxaborinine-8-carboxylic acid] | 32 to 64 | 8 to 16 | < 0.125 | 0.25 to 0.5 (≈ 0.432 to 0.863 µM) | > 128 | 0.25 to 0.5 (≈ 0.432 to 0.863 µM) | –
12 | CCN1CCN(C(=O)N[C@H](C(=O)N[C@H]2Cc3ccc(F)c(C(=O)O)c3OB2O)c2ccc(O)c(O)c2Cl)C(=O)C1=O [Example 188, (R)-3-((S)-2-(2-chloro-3,4-dihydroxyphenyl)-2-(4-ethyl-2,3-dioxopiperazine-1-carboxamido)acetamido)-7-fluoro-2-hydroxy-3,4-dihydro-2H-benzo[e][1,2]oxaborinine-8-carboxylic acid] | 32 to 64 | 8 to 16 | 4 to 8 (≈ 6.75 to 13.5 µM) | 16 to 32 (≈ 27 to 54 µM) | 8 to 16 | 4 to 8 (≈ 6.75 to 13.5 µM) | –
13 | CCN1CCN(C(=O)NC(C(=O)N[C@H]2Cc3ccc(F)c(C(=O)O)c3OB2O)c2ccc(S(N)(=O)=O)cc2)C(=O)C1=O (stereo partly drawn) [Example 181, (3R)-3-(2-(4-ethyl-2,3-dioxopiperazine-1-carboxamido)-2-(4-sulfamoylphenyl)acetamido)-7-fluoro-2-hydroxy-3,4-dihydro-2H-benzo[e][1,2]oxaborinine-8-carboxylic acid] | > 128 | > 128 | 0.25 to 0.5 (≈ 0.413 to 0.826 µM) | 4 to 8 (≈ 6.61 to 13.2 µM) | 32 to 64 | 1 to 2 (≈ 1.65 to 3.3 µM) | –
14 | CNCCN1CCN(C(=O)NC(C(=O)N[C@H]2Cc3cccc(C(=O)O)c3OB2O)c2ccc(O)c(O)c2Cl)C(=O)C1=O (stereo partly drawn) [Example 239, (3R)-3-(2-(2-chloro-3,4-dihydroxyphenyl)-2-(4-(2-(methylamino)ethyl)-2,3-dioxopiperazine-1-carboxamido)acetamido)-2-hydroxy-3,4-dihydro-2H-benzo[e][1,2]oxaborinine-8-carboxylic acid] | 32 to 64 | 2 to 4 | 4 to 8 (≈ 6.62 to 13.2 µM) | > 64 | 2 to 4 | 4 to 8 (≈ 6.62 to 13.2 µM) | –
